We go through 11 compounds from article PMC6099558, “N-oxide alkaloids from Crinum amabile (Amaryllidaceae)” (Molecules : A Journal of Synthetic Chemistry and Natural …, 2018).

Values after ≈ are worked out from the molar mass of the structure shown. Read-outs that look alike come from different tables or passages of the source.

The subject of series [1] is Leishmania donovani (amastigotes forms, MHOM-ET-67/L82 strain). The series can be described thus: In vitro antiprotozoal activity against L. donovani. In kind it is cell-based. Particulars: read-out: L. donovani IC50. The procedure: (§1) In vitro tests for the biological activity of the alkaloids isolated from C. amabile against Trypanosoma brucei rhodesiense (trypomastigotes forms, STIB 900 strain), Trypanosoma cruzi (axenic grown amastigotes forms, Tulahuen C4 strain), Leishmania donovani (amastigotes forms, MHOM-ET-67/L82 strain), and Plasmodium falciparum (intraerythrocytic forms, IEF, NF54 strain) and a cytotoxicity test against the mammalian L6 cell line from rat skeletal myoblasts were carried out at the Swiss Tropical and Public Health Institute (Swiss TPH, Basel, Switzerland) according to established protocols as described by Orhan and co-workers. The reference drugs used in these assays were melarsoprol, benznidazole, miltefosine, chloroquine and podophyllotoxin, respectively.

Series [2] concerns Plasmodium falciparum (intraerythrocytic forms, IEF, NF54 strain). The series can be described thus: In vitro antiprotozoal activity against P. falciparum NF54. It is filed as cell-based. The method, then:
as §1

Series [3] relates to Trypanosoma cruzi (axenic grown amastigotes forms, Tulahuen C4 strain). Description: In vitro antiprotozoal activity against T. cruzi. It is filed as cell-based. The following applies: read-out: T. cruzi IC50. The procedure: as §1
For series [4], the system named is Trypanosoma brucei rhodesiense (trypomastigotes forms, STIB 900 strain). The series can be described thus: In vitro antiprotozoal activity against T. brucei rhodesiense. In kind it is cell-based. Particulars: read-out: T. brucei rhodesiense IC50. The procedure:
as §1

Series [5] is described as follows: Cytotoxicity test against mammalian L6 cell line. It is filed as cell-based. Particulars: L6 cells (rat skeletal myoblasts). The method, then: as §1
Another series deals with BuChE (Equus caballus, UniProt P81908). Description: Butyrylcholinesterase inhibitory activity (Ellman method, modified). It is filed as biochemical. The procedure:
(§2) Cholinesterase inhibitory activities were analyzed as by Ellman and co-workers with some modifications as by López and co-workers. Fifty microliters of AChE or BuChE phosphate buffer (8m M K2HPO4, 2.3 mM NaH2PO4, 0.15 M NaCl, pH 7.5) and 50 μL of the sample dissolved in the same buffer were added to the wells. The plates were incubated for 30 min at room temperature before 100 μL of the substrate solution (0.1 M Na2HPO4, […], and 0.6 mM acetylthiocholine iodide, ATCI, or 0.24 mM butyrylthiocholine iodide, BTCI, in Millipore water, pH 7.5) was added. The absorbance was read in a Labsystem microplate reader (Helsinki, Finland) at 405 nm after 10 min. […] In a first step, samples were assessed at 10, 100 and 200 µg mL^−1 towards both enzymes. […] Enzyme activity was calculated as a percentage compared to an assay using a buffer without any inhibitor. The cholinesterase inhibitory data were analyzed with the software Microsoft Office Excel 2010.
A general note: Ellman's reagent forms a yellow product with free thiols.

The target in another series is AChE (Electrophorus electricus, UniProt O42275). The series can be described thus: Acetylcholinesterase inhibitory activity (Ellman method, modified). In kind it is biochemical. The procedure: as §2
Sequence of AChE (O42275 24-633): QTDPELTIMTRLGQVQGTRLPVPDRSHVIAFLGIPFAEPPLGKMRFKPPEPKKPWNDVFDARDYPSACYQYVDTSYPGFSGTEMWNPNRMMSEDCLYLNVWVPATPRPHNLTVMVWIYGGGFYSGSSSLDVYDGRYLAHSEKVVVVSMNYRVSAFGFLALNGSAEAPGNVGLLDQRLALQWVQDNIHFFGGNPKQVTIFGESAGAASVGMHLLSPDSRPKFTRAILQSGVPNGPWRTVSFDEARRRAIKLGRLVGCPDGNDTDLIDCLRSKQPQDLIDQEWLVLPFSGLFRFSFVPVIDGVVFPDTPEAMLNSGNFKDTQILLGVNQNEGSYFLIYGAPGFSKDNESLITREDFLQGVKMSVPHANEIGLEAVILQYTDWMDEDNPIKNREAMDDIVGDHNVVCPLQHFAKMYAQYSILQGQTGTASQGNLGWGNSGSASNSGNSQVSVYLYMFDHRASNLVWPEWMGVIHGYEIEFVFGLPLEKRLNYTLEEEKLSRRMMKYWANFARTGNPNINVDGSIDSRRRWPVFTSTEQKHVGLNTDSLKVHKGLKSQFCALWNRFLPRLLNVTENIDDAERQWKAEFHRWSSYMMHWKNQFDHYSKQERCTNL
For series [6], the system named is chloroquine-sensitive strain of Plasmodium falciparum. Also noted: method as in PMID 8229016. The following applies: read-out: IC50 against chloroquine-sensitive strain of Plasmodium falciparum; cited from earlier work.
The subject of series [7] is chloroquine-resistant strain of Plasmodium falciparum. Particulars: read-out: IC50 against chloroquine-resistant strain of Plasmodium falciparum; cited from earlier work.
[8] abbreviates: amastigotes forms, MHOM-ET-67/L82 strain.
The mark [9] stands for this setting: intraerythrocytic forms, NF54 strain, read-out: P. falciparum IC50.
[10] abbreviates: amastigotes forms, Tulahuen C4 strain.
Setting [11] is: trypomastigotes forms, STIB 900 strain.

Sequence of BuChE (P81908 whole entry): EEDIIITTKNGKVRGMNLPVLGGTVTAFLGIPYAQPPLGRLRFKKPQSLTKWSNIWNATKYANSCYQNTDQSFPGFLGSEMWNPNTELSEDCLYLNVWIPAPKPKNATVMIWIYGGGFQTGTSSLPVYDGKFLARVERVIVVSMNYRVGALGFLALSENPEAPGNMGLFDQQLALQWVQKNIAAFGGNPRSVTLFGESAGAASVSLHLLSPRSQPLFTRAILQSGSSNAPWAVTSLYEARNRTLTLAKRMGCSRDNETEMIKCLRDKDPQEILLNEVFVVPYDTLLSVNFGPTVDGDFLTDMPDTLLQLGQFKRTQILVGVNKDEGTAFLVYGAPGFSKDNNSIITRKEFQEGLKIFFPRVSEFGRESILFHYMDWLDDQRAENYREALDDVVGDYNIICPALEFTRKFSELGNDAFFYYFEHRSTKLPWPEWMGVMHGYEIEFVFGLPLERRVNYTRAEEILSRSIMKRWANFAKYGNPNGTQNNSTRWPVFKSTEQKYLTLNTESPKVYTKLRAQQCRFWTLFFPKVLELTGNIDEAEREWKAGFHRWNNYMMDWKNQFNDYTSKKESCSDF

As for `CO[C@@H]1C[C@@H]2[C@@]3(CC[N@@+]2([O-])Cc2cc4c(cc23)OCO4)[C@H]2O[C@@H]12` [Augustine N-oxide (1), Augustine N-oxide], the half-maximal inhibitory concentration (IC50) in series [1] (setting [8]) is more than 100 µg/mL; in series [2] (setting [9]), 36.6 ± 4.74 µg/mL (≈ 115 µM); in series [3] (setting [10]), 66.2 ± 11.8 µg/mL (≈ 209 µM); in [4] (setting [11]), 58.9 ± 11.5 µg/mL (≈ 185 µM); in [5] it was more than 100 µg/mL.

In the case of `CCCCCCCCCCCCCCCCOP(=O)([O-])OCC[N+](C)(C)C` [miltefosine, reference compound], the IC50 in series [1] is 0.515 ± 0.06 µg/mL (≈ 1.26 µM).

For `CCN(CC)CCCC(C)Nc1ccnc2cc(Cl)ccc12` (centres unmarked) [chloroquine, reference compound], the IC50 in series [2] (NF54, read-out: P. falciparum IC50) worked out at 0.004 ± 0.0007 µg/mL (≈ 0.0125 µM).

On to `Nc1nc(N)nc(Nc2ccc([As]3SCC(CO)S3)cc2)n1` (centres unmarked) [melarsoprol, reference compound], for which the IC50 in series [4] came to 0.003 ± 0.001 µg/mL.

For the compound `CO[C@H]1C=C[C@@]23CC[N@@+]([O-])(Cc4cc5c(cc42)OCO5)[C@@H]3C1` [Buphanisine N-oxide (2), Buphanisine N-oxide], the IC50 in series [1] (setting [8]) is more than 100 µg/mL; in series [2] (setting [9]) it was 32.55 ± 0.07 µg/mL (≈ 108 µM); in [3] (setting [10]), 64 ± 1.34 µg/mL (≈ 213 µM); in [4] (setting [11]) it was 55.2 ± 4.31 µg/mL (≈ 183 µM); in [5] it was more than 100 µg/mL.

In series [5], `COc1cc([C@@H]2c3cc4c(cc3[C@H](O)[C@H]3COC(=O)[C@H]23)OCO4)cc(OC)c1OC` [podophyllotoxin, reference compound] yielded an IC50 of 0.004 ± 0.0007 µg/mL (≈ 0.00965 µM).

Take `CN1CCC23c4cc5c(cc4C4OC(CCC12)C3O4)OCO5` (centres unmarked) [Augustamine (22), Augustamine]: the half-maximal inhibitory concentration (IC50) is more than 100 µg/mL in series [1] (setting [8]); 20.4 ± 0.21 µg/mL (≈ 67.5 µM) in series [2] (setting [9]); 54 ± 4.53 µg/mL (≈ 179 µM) in series [3] (setting [10]); 19.2 ± 2.97 µg/mL (≈ 63.7 µM) in series [4] (setting [11]); 81.55 ± 0.64 µg/mL (≈ 271 µM) in series [5]. Besides, the “BuChE inhibitory activity (in words)” value on BuChE is reported as “did not show any cholinesterase inhibitory activities”. Besides, the “AChE inhibitory activity (in words)” value at AChE is on record as “did not show any cholinesterase inhibitory activities”.

As to `CO[C@@H]1C[C@H]2N3CC[C@@]2(c2cc4c(cc2C3)OCO4)[C@H]2O[C@@H]12` [Augustine (13), Augustine], the half-maximal inhibitory concentration (IC50) is more than 100 µg/mL in series [1] (setting [8]); 460 nM in series [6]; 14.2 ± 0.14 µg/mL (≈ 47.1 µM) in series [2] (setting [9]); 56 ± 0.71 µg/mL (≈ 186 µM) in series [3] (setting [10]); 15.1 ± 1.06 µg/mL (≈ 49.9 µM) in series [4] (setting [11]); more than 100 µg/mL in series [5]. Moreover, in series [7], the IC50 was 600 nM. The “AChE inhibitory activity (in words)” value at AChE is given as “moderate”.

For the compound `O=C(Cn1ccnc1[N+](=O)[O-])NCc1ccccc1` [benznidazole, reference compound], the IC50 in series [3] (TULAHUEN) is 0.865 ± 0.08 µg/mL (≈ 3.32 µM).

For `O[C@H]1C=C[C@@]23CCN(Cc4cc5c(cc42)OCO5)[C@@H]3C1` [Crinine (10), Crinine], the IC50 was more than 100 µg/mL in series [1] (setting [8]); 30.9 ± 2.19 µg/mL (≈ 114 µM) in series [2] (setting [9]); 57.5 ± 6.86 µg/mL (≈ 212 µM) in series [3] (setting [10]); 18.9 ± 0.78 µg/mL (≈ 69.8 µM) in series [4] (setting [11]); more than 100 µg/mL in series [5].

Take `CO[C@H]1C=C[C@@]23CCN(Cc4cc5c(cc42)OCO5)[C@@H]3C1` [Buphanisine (8), Buphanisine]: the IC50 was more than 100 µg/mL in series [1] (setting [8]); 4.28 ± 0.18 µg/mL (≈ 15 µM) in series [2] (setting [9]); 55.5 ± 4.6 µg/mL (≈ 195 µM) in [3] (setting [10]); 16.5 ± 0.57 µg/mL (≈ 57.8 µM) in [4] (setting [11]); 72.8 ± 5.02 µg/mL (≈ 255 µM) in series [5]. Moreover, the “AChE inhibitory activity (in words)” value at AChE is “low”.

What is called IC50 is the concentration needed to halve the response being measured.
